Where two headings read alike, the source gives them in different places.
Tested on: Leukemia L1210 cells
Assay: Chemotherapeutic effect of nitrosourea derivatives on leukemia L1210 in mice
Format: in vivo, mice (BDF1/BDF)
Set-up: Volume of ascites, Treated: unit not given here
Source text: Chemotherapeutic effect of a variety of the nitrosourea derivatives of the formula I according to this invention on leukemia L1210 in mice were investigated by the following method and materials.
A--BDF1 mice (about 6 week-aged; body weight: 22±1 g); each experimental group was composed of 2 male mice.
B--BDF1 mice (about 7 week-aged; body weight: 21±2 g); each experimental group was composed of 3 male mice.
C--BDF mice (about 7 week-aged; body weight: 22±2 g); each experimental group was composed of 2 male mice.
D--BDF mice (about 6 week-aged; body weight: 21±2 g); each experimental group was composed of 3 male mice.
E--BDF1 mice (about six week-aged; body weight 20±1 g); each experimental group was composed of 3 female mice.
F--BDF1 mice (about six week-aged; body weight 21±1 g); each experimental group was composed of 3 male mice.
A--Leukemia L1210 cells (2.1×10^6 cells/ 0.05 ml/mouse) were intraperitoneally inoculated.
B--Leukemia L1210 cells (1.9×10^6 cells/0.05 ml/mouse) were intraperitoneally inoculated.
C--Leukemia L1210 cells (1.2×10^6 cells/0.05 ml/mouse) were intraperitoneally inoculated.
A--The test compound was dissolved in a physiological saline solution and administered intraperitoneally at a volume of 0.1 ml/mouse. The administration was made at once/day, from 24 hours after i.p. inoculation of L1210 cells, for 3 days. The effect of test compound was assessed by mean survival days of mice, percent increase in life-span, anatomical findings involving the volume of ascites.
B--The same as that used in A except that the drug administration was continued for 5 days.
C--The same as that used in A except that the test compound was suspended in 0.5% CMC solution and that the drug administration was continued for 5 days.
D--The same as that used in A except that the test compound was dissolved in distilled water for injection purposes.
The percentage increase in life-span (ILS) was calculated as follows:
Percentage increase in life-span (ILS)=T-C/C×100
T: The mean survival days of the treated animals.
C: The mean survival days of the untreated control.

[1] = 1 mg/kg i.p. once/day for 3 days (procedure A, saline)
[2] = 2 mg/kg i.p. once/day for 3 days (procedure A, saline)
[3] = 4 mg/kg i.p. once/day for 3 days (procedure A, saline)
[4] = 6 mg/kg i.p. once/day for 3 days (procedure A, saline)
[5] = 8 mg/kg i.p. once/day for 3 days (procedure A, saline)
[6] = 10 mg/kg i.p. once/day for 3 days (procedure A, saline)
[7] = 20 mg/kg i.p. once/day for 3 days (procedure A, saline)
[8] = 30 mg/kg i.p. once/day for 3 days (procedure A, saline)
[9] = Mus musculus, L1210, ip, 72 h, 1 mg/kg i.p. once/day for 3 days (procedure A, saline), read-out: Percentage increase in life-span (ILS)
[10] = Mus musculus, L1210, ip, 72 h, 2 mg/kg i.p. once/day for 3 days (procedure A, saline), read-out: Percentage increase in life-span (ILS)
[11] = Mus musculus, L1210, ip, 72 h, 4 mg/kg i.p. once/day for 3 days (procedure A, saline), read-out: Percentage increase in life-span (ILS)
[12] = Mus musculus, L1210, ip, 72 h, 8 mg/kg i.p. once/day for 3 days (procedure A, saline), read-out: Percentage increase in life-span (ILS)
[13] = Mus musculus, L1210, ip, 72 h, 10 mg/kg i.p. once/day for 3 days (procedure A, saline), read-out: Percentage increase in life-span (ILS)
[14] = 100 mg/kg i.p. once/day for 3 days (procedure D, distilled water)
[15] = 200 mg/kg i.p. once/day for 3 days (procedure D, distilled water)
[16] = 400 mg/kg i.p. once/day for 3 days (procedure D, distilled water)
[17] = 16 mg/kg i.p. once/day for 3 days (procedure A, saline)
[18] = Mus musculus, L1210, ip, 72 h, 16 mg/kg i.p. once/day for 3 days (procedure A, saline), read-out: Percentage increase in life-span (ILS)
[19] = 200 mg/kg i.p. once/day for 5 days (procedure B, saline)
[20] = 300 mg/kg i.p. once/day for 5 days (procedure B, saline)
[21] = Mus musculus, L1210, ip, 120 h, read-out: Percentage increase in life-span (ILS)

| SMILES | Survival days, Treated (mean) [1] [days] | Volume of ascites, Treated [1] | Survival days, Treated (mean) [2] [days] | Volume of ascites, Treated [2] | Survival days, Treated (mean) [3] [days] | Volume of ascites, Treated [3] | Survival days, Treated (mean) [5] [days] | Volume of ascites, Treated [5] | ILS at 1 mg/kg [9] [%] | ILS at 2 mg/kg [10] [%] | ILS at 4 mg/kg [11] [%] | ILS at 8 mg/kg [12] [%] | Survival days, Treated (mean) [17] [days] | Volume of ascites, Treated [17] | ILS at 16 mg/kg [18] [%] | also measured |
| --- | --- | --- | --- | --- | --- | --- | --- | --- | --- | --- | --- | --- | --- | --- | --- | --- |
| O=NN(CCCl)C(=O)N[C@H]1[C@H](O)[C@@H](O)[C@H](O)[C@@H](O)[C@@H]1O [Compound 5, 1-(2-chloroethyl)-1-nitroso-3-(1N,3,5/2,4,6-pentahydroxycyclohexyl)urea] | 12.0 | 4.5 | 12.5 | 4.0 | 13.0 | 2.8 | 16.0 | 2.5 | 23.7 | 28.9 | 34 | 64.9 |  |  |  | Survival days, Treated (mean) [4]: 14.0 days; Volume of ascites, Treated [4]: 2.0; Survival days, Treated (mean) [6]: 15.5 days; Volume of ascites, Treated [6]: 0; Survival days, Treated (mean) [7]: > 61.1 days; Volume of ascites, Treated [7]: 0; Survival days, Treated (mean) [8]: 11.6 days; Volume of ascites, Treated [8]: 0; ILS at 6 mg/kg (Mus musculus, L1210, ip, 72 h, 6 mg/kg i.p. once/day for 3 days (procedure A, saline), read-out: Percentage increase in life-span (ILS)): 44.3%; ILS at 10 mg/kg [13]: 59.8%; ILS at 20 mg/kg (Mus musculus, L1210, ip, 72 h, 20 mg/kg i.p. once/day for 3 days (procedure A, saline), read-out: Percentage increase in life-span (ILS)): > 530%; ILS at 30 mg/kg (Mus musculus, L1210, ip, 72 h, 30 mg/kg i.p. once/day for 3 days (procedure A, saline), read-out: Percentage increase in life-span (ILS)): 19.6% |
| CN(N=O)C(=O)N[C@@H](CO)[C@@H](O)[C@H](O)[C@H](O)CO [Compound 12, N-carbamoyl-N'-methyl-N'-nitroso-D-glucosaminol, reference compound] |  |  |  |  |  |  |  |  |  |  |  |  |  |  |  | Survival days, Treated (mean) [14]: 13.9 days; Volume of ascites, Treated [14]: 3.0; Survival days, Treated (mean) [15]: 15.0 days; Volume of ascites, Treated [15]: 4.0; Survival days, Treated (mean) [16]: 13.4 days; Volume of ascites, Treated [16]: 3.4; ILS at 100 mg/kg (Mus musculus, L1210, ip, 72 h, 100 mg/kg i.p. once/day for 3 days (procedure D, distilled water), read-out: Percentage increase in life-span (ILS)): 30%; ILS at 200 mg/kg (Mus musculus, L1210, ip, 72 h, 200 mg/kg i.p. once/day for 3 days (procedure D, distilled water), read-out: Percentage increase in life-span (ILS)): 40%; ILS at 400 mg/kg (Mus musculus, L1210, ip, 72 h, 400 mg/kg i.p. once/day for 3 days (procedure D, distilled water), read-out: Percentage increase in life-span (ILS)): 25% |
| O=NN(CCCl)C(=O)N[C@@H]1O[C@H](CO)[C@H](O)[C@H](O)[C@H]1O [Compound 7, 1-(2-chloroethyl)-3-(β-D-galactopyranosyl)-1-nitrosourea] | 18.5 | 4.6 | 14.7 | 0.8 | > 47.0 | 0 | > 47.0 | 0 | 98.9 | 58.1 | > 405 | > 405 |  |  |  | Survival days, Treated (mean) [6]: 18.7 days; Volume of ascites, Treated [6]: 0; ILS at 10 mg/kg [13]: 101% |
| COc1cccc2c1C(=O)c1c(O)c3c(c(O)c1C2=O)C[C@@](O)(C(C)=O)C[C@@H]3O[C@H]1C[C@H](N)[C@H](O)[C@H](C)O1 [Compound 10, Daunomycin, reference compound] |  |  |  |  |  |  |  |  |  |  |  |  |  |  |  | Survival days, Treated (mean) (0.25 mg/kg i.p. once/day for 5 days (procedure C, 0.5% CMC)): 10.2 days; Survival days, Treated (mean) (0.5 mg/kg i.p. once/day for 5 days (procedure C, 0.5% CMC)): 12.8 days; Survival days, Treated (mean) (1 mg/kg i.p. once/day for 5 days (procedure C, 0.5% CMC)): 12.6 days; Survival days, Treated (mean) (2 mg/kg i.p. once/day for 5 days (procedure C, 0.5% CMC)): 13.6 days; ILS at 0.25 mg/kg (Mus musculus, L1210, ip, 120 h, 0.25 mg/kg i.p. once/day for 5 days (procedure C, 0.5% CMC), read-out: Percentage increase in life-span (ILS)): 20%; ILS at 0.5 mg/kg (Mus musculus, L1210, ip, 120 h, 0.5 mg/kg i.p. once/day for 5 days (procedure C, 0.5% CMC), read-out: Percentage increase in life-span (ILS)): 50.6%; ILS at 1 mg/kg (Mus musculus, L1210, ip, 120 h, 1 mg/kg i.p. once/day for 5 days (procedure C, 0.5% CMC), read-out: Percentage increase in life-span (ILS)): 48.3%; ILS at 2 mg/kg (Mus musculus, L1210, ip, 120 h, 2 mg/kg i.p. once/day for 5 days (procedure C, 0.5% CMC), read-out: Percentage increase in life-span (ILS)): 60% |
| O=NN(CCCl)C(=O)N[C@@H](CO)[C@@H](O)[C@H](O)[C@H](O)CO [Compound 9, N-carbamoyl-N'-(2-chloroethyl)-N'-nitroso-D-glucosaminol] |  |  |  |  |  |  | 18.0 | 0 |  |  |  | 68.2 | > 53.7 | 0 | > 402 |  |
| CO[C@@H]1O[C@H](C)[C@@H](O)[C@H](O)[C@H]1NC(=O)N(C)N=O [Compound 6, Methyl 2,6-dideoxy-2-(N'-methyl-N-nitrosoureido)-βD-glucopyranoside] |  |  |  |  |  |  |  |  |  |  |  |  |  |  |  | Survival days, Treated (mean) [19]: 15.1 days; Volume of ascites, Treated [19]: 2.0; Survival days, Treated (mean) [20]: 13.0 days; Volume of ascites, Treated [20]: 0.3; ILS at 200 mg/kg [21]: 77.6%; ILS at 300 mg/kg [21]: 52.9% |
| O=NN(CCCl)C(=O)N[C@@H]1OC[C@@H](O)[C@H](O)[C@H]1O [Compound 3, 1-(2-chloroethyl)-1-nitroso-3-(β-D-xylopyranosyl)urea] | 17.0 | 0 | > 24.0 | 0 | > 60.0 | 0 | > 60.0 | 0 | 54.5 | > 118 | > 446 | > 446 | 9.0 | 0 | -18.2 |  |
| O=NN(CCCl)C(=O)N[C@H]1[C@H](O)CCC[C@@H]1O [Compound 4, 1-(2-chloroethyl)-3-(1,3/2N-dihydroxycyclohexyl)-1-nitrosourea] |  |  | 22.0 | 0.8 | > 60.0 | 0 | > 59.3 | 0 |  | 114 | > 482 | > 476 | 13.0 | 0 | 26.2 |  |

— patent US4180655A, “Nitrosourea derivatives” (Suami; Tetsuo, priority 1974, dated 1979)
